Source: the CheMixHub viscosity set
Values joined by “and” are separate entries in the source; they are usually repeats but may differ in a detail not shown here. Equal entries are not always repeated.

Assay: xn = mol fraction of the nth substance listed

CS(C)=O + O
viscosity
Conditions | 293.15 K | 298.15 K
101 kPa, x1 = 0.01 | 1.11 mPa·s | –
101 kPa, x1 = 0.01869 | – | 1.01 mPa·s
101 kPa, x1 = 0.025 | 1.23 mPa·s | –
101 kPa, x1 = 0.039 | 1.38 mPa·s | –
101 kPa, x1 = 0.0406 | – | 1.19 mPa·s
101 kPa, x1 = 0.05 | 1.502 mPa·s | 1.318 mPa·s
101 kPa, x1 = 0.055 | 1.55 mPa·s | –
101 kPa, x1 = 0.06619 | – | 1.44 mPa·s
101 kPa, x1 = 0.071 | 1.74 mPa·s | –
101 kPa, x1 = 0.09 | 1.97 mPa·s | –
101 kPa, x1 = 0.11 | 2.23 mPa·s | –
101 kPa, x1 = 0.13 | 2.54 mPa·s | –
101 kPa, x1 = 0.15 | 2.815 mPa·s | 2.438 mPa·s
101 kPa, x1 = 0.16 | 2.9 mPa·s | –
101 kPa, x1 = 0.19 | 3.28 mPa·s | –
101 kPa, x1 = 0.2 | – | 3.156 mPa·s
101 kPa, x1 = 0.22 | 3.68 mPa·s | –
101 kPa, x1 = 0.25 | 4.042 mPa·s | 3.4 mPa·s
101 kPa, x1 = 0.26 | 4.02 mPa·s | –
101 kPa, x1 = 0.3 | 4.26 mPa·s | –
101 kPa, x1 = 0.35 | 4.375 mPa·s and 4.4 mPa·s | 3.763 mPa·s
101 kPa, x1 = 0.4 | – | 3.799 mPa·s
101 kPa, x1 = 0.41 | 4.29 mPa·s | –
101 kPa, x1 = 0.48 | 3.913 mPa·s and 3.97 mPa·s | 3.395 mPa·s and 3.446 mPa·s
101 kPa, x1 = 0.57 | 3.54 mPa·s | –
101 kPa, x1 = 0.6 | – | 3.008 mPa·s
101 kPa, x1 = 0.67 | 3.08 mPa·s | –
101 kPa, x1 = 0.73 | 2.9 mPa·s | 2.507 mPa·s
101 kPa, x1 = 0.8 | – | 2.375 mPa·s
101 kPa, x1 = 0.81 | 2.62 mPa·s | –
101 kPa, x2 = 0.047 | – | 2.054 mPa·s
101 kPa, x2 = 0.089 | – | 2.118 mPa·s
101 kPa, x2 = 0.186 | – | 2.298 mPa·s
101 kPa, x2 = 0.2 | – | 2.3 mPa·s
101 kPa, x2 = 0.3 | – | 2.7 mPa·s
101 kPa, x2 = 0.335 | – | 2.708 mPa·s
101 kPa, x2 = 0.522 | – | 3.449 mPa·s
101 kPa, x2 = 0.59 | – | 3.676 mPa·s
101 kPa, x2 = 0.651 | – | 3.764 mPa·s
101 kPa, x2 = 0.702 | – | 3.674 mPa·s
101 kPa, x2 = 0.743 | – | 3.467 mPa·s
101 kPa, x2 = 0.812 | – | 2.854 mPa·s
101 kPa, x2 = 0.867 | – | 2.232 mPa·s
101 kPa, x2 = 0.91 | – | 1.748 mPa·s
101 kPa, x2 = 0.945 | – | 1.382 mPa·s
101 kPa, x2 = 0.975 | – | 1.11 mPa·s
101.3 kPa, x1 = 0.012 | 1.112 mPa·s | 0.986 mPa·s
101.3 kPa, x2 = 0.1906 | 2.569 mPa·s | 2.299 mPa·s
101.3 kPa, x2 = 0.3252 | 2.966 mPa·s | 2.63 mPa·s
101.3 kPa, x2 = 0.5203 | 3.891 mPa·s | 3.38 mPa·s
101.3 kPa, x2 = 0.6501 | 4.352 mPa·s | 3.727 mPa·s
101.3 kPa, x2 = 0.743 | 3.998 mPa·s | 3.414 mPa·s
101.3 kPa, x2 = 0.8183 | 3.231 mPa·s | 2.773 mPa·s
101.3 kPa, x2 = 0.8668 | 2.57 mPa·s | –
101.3 kPa, x2 = 0.9101 | 2.008 mPa·s | 1.747 mPa·s
101.3 kPa, x2 = 0.9455 | 1.575 mPa·s | 1.383 mPa·s
101.3 kPa, x2 = 0.9751 | 1.247 mPa·s | 1.101 mPa·s
101.33 kPa, x1 = 0.00588 | 1.053 mPa·s | –
101.33 kPa, x1 = 0.012 | 1.112 mPa·s | –
101.33 kPa, x1 = 0.02498 | 1.264 mPa·s | –
101.33 kPa, x1 = 0.03901 | 1.402 mPa·s | –
101.33 kPa, x1 = 0.04864 | 1.515 mPa·s | –
101.33 kPa, x1 = 0.0545 | 1.559 mPa·s | –
101.33 kPa, x1 = 0.08993 | 2.009 mPa·s | –
101.33 kPa, x1 = 0.1332 | 2.589 mPa·s | –
101.33 kPa, x1 = 0.1469 | 2.743 mPa·s | –
101.33 kPa, x1 = 0.1874 | 3.319 mPa·s | –
101.33 kPa, x1 = 0.2998 | 4.296 mPa·s | –
101.33 kPa, x1 = 0.3498 | 4.385 mPa·s | –
101.33 kPa, x1 = 0.4498 | 4.091 mPa·s | –
101.33 kPa, x1 = 0.5665 | 3.498 mPa·s | –
101.33 kPa, x1 = 0.651 | 3.211 mPa·s | –
101.33 kPa, x1 = 0.7539 | 2.743 mPa·s | –
101.33 kPa, x1 = 0.847 | 2.514 mPa·s | –
101.33 kPa, x2 = 0.2097 | – | 2.291 mPa·s
101.33 kPa, x2 = 0.3132 | – | 2.568 mPa·s
101.33 kPa, x2 = 0.409 | – | 2.909 mPa·s
101.33 kPa, x2 = 0.503 | – | 3.197 mPa·s
101.33 kPa, x2 = 0.7032 | – | 3.569 mPa·s
101.33 kPa, x2 = 0.8053 | – | 2.858 mPa·s
101.33 kPa, x2 = 0.9021 | – | 1.787 mPa·s
